Key:
various glycosidases = details: free small-molecule compounds; cited from earlier work
HepG2 liver cancer cells [1] = assay: Hepatocellular carcinoma killing action of sorafenib derivative 32, cell viability assay, 48 h coculture; format: cell-based; details: Homo sapiens; HepG2, 48 hours, small molecule not carried on nanoparticles
Procedure: At 48 hours after the start of coculture, washing was performed 3 times with the medium component and 10 μL of Cell Counting Kit-8 (Dojindo, Kumamoto, Japan) was added to the cell culture medium; incubation was carried out for 1.5 hours in a 37° C. and 5% CO2 atmosphere; and the cancer cell viability was quantitated by measurement of the absorbance at 450 nm (FIG. 15).

[2] = system: cultured cancer cells that express the target kinase group; details: cultured cancer cells expressing the target kinase group; cited from earlier work
HepG2 cells = details: Lin, L. et al., Cancer Res. 2006; cited from earlier work
HepG2 liver cancer cells [3] = assay: Hepatocellular carcinoma killing effect, cell viability assay (Cell Counting Kit-8), 96 h coculture; format: cell-based, human
Procedure: HepG2 cells (5×10^4/[…]/well) were incubated for 24 hours in a 37° C. and 5% CO2 atmosphere, and compounds 7, 15, and 20 (10 μL of a solution brought to 1 μM by dissolution in MilliQ) were then respectively added per 90 μL of the medium and the final concentration was adjusted to 100 nM. At 96 hours after the start of coculture, washing was performed 3 times with the medium component and 10 μL of Cell Counting Kit-8 (Dojindo, Kumamoto, Japan) was added to the cell culture medium; incubation was carried out for 1.5 hours in a 37° C. and 5% CO2 atmosphere; and the viable cell percentage was quantitated by measurement of the absorbance at 450 nm. A 100 nM 5-fluorouracil solution (5-FU) was used as a control agent (FIG. 11).
With reference to the preceding experimental results (FIG. 11), an evaluation of the dose dependence and a determination of the IC50 value were performed for the antitumor effect of the inhibitor 7-bearing, phospholipid-coated fluorescent nanoparticles and the inhibitor 15-bearing, phospholipid-coated fluorescent nanoparticles, which had been confirmed to have a significant inhibitory activity on cancer cell growth versus the 5-FU comparative control agent. […]

[4] = system: MCF-7 breast cancer cells; assay: Breast cancer cell killing action, viability by MTA/MTT assay (Cell Counting Kit-8); format: cell-based, human; details: 100 μM cisplatin, MCF-7, 96 hours, microscopy
Procedure: Quantitation of dead cells by the MTA assay: MCF7 cells (5×10^3/100 μL/well) were incubated for 24 hours in a 37° C. and 5% CO2 atmosphere, and QD-anchored inhibitor 7 (1 μM, 10±L/MilliQ), QD control (1 μM, 10 μL/MilliQ), compound 7 (1 μM, 10 μL/MilliQ), and cisplatin (1 mM, 10 μL/MilliQ) were then respectively added per 90 μL of the medium and the final concentration was adjusted to 100 nM (but 100 μM for the cisplatin). At 96 hours after the start of culture, washing was performed 3 times with the medium component and 10 μL of the cell culture medium was recovered. Cell Counting Kit-8 solution (Dojindo, Kumamoto, Japan) was added; incubation was carried out for 1.5 hours in a 37° C. and 5% CO2 atmosphere; and the viable cell percentage was quantitated by measurement of the absorbance at 450 nm.
Quantitation of dead cells by the MTT assay: MCF-7 cells (5×10^4/[…]/well) were incubated for 24 hours in a 37° C. and 5% CO2 atmosphere, and QD-anchored inhibitor 15 (1 μM, 10 μL/MilliQ) was then respectively added per […] of the medium and the final concentration was adjusted to 100 nM (but 100 μM for the cisplatin). […]

**Q.** For `CC(=O)CCCC(=O)Nc1ccc(O[C@]2(C(=O)O)CC(O)[C@@H](NC(C)=O)C([C@H](O)[C@H](O)CO)O2)c(C(F)F)c1` (stereo partly drawn) [compound 20], which “native IC50 for various glycosidases in vitro” value (shortened to “native IC50”) (various glycosidases) is on record?
**A.** on the order of mM

**Q.** With `CC(=O)CCCCNC(=O)c1cc(Oc2ccc(NC(=O)Nc3ccc(Cl)c(C(F)(F)F)c3)cc2)ccn1` [compound 32] as the compound, how does the IC50 (HepG2 liver cancer cells [1]) read?
**A.** 2.1 µM

**Q.** Which “native IC50” value (various glycosidases) does the source give for `CC(=O)CCCC(=O)Nc1ccc(O[C@@H]2OC(CO)[C@H](O)C(O)C2O)c(C(F)F)c1` (stereo partly drawn) [compound 15] here?
**A.** on the order of mM

**Q.** What does the source list for `CNC(=O)c1cc(Oc2ccc(NC(=O)Nc3ccc(Cl)c(C(F)(F)F)c3)cc2)ccn1` [sorafenib]?
**A.** IC50 [2]: 4.5 µM; IC50 (HepG2 cells): 4.5 µM

**Q.** Which antitumor activity (HepG2 liver cancer cells [3]; 100 nM, HepG2, coculture for 96 hours) does the source give for `O=c1[nH]cc(F)c(=O)[nH]1` [5-FU, 5-fluorouracil] here?
**A.** a significant antitumor activity was not observed

**Q.** And the IC50 (HepG2 liver cancer cells [3]; Homo sapiens, HepG2, 96 hours of coculture, 5 to 100 nM)?
**A.** > 0.1 µM

**Q.** For `CC(=O)CCCC(=O)Nc1ccc(O[C@@H]2OC(CO)[C@@H](O)C(O)C2NC(C)=O)c(C(F)F)c1` (stereo partly drawn) [compound 7], which “native IC50” value (various glycosidases) is on record?
**A.** on the order of mM

**Q.** Which “floating dead cells with altered shapes” value [4] does the source give for `N.N.[Cl][Pt][Cl]` [cisplatin] here?
**A.** floating dead cells with altered shapes were observed

— patent US11007276B2, “Intracellular substance transport system and use thereof” (NATIONAL UNIVERSITY CORPORATION HOKKAIDO UNIVERSITY, priority 2016, dated 2021)
